{"source": "patent US20060009478A1", "about": "“Methods for the treatment of back pain” (priority 2003, published 2006)", "tested_on": "patients with moderate to severe chronic pain due to osteoarthritis of the hip or knee", "assay": "Pain intensity (daily diary, 11-point numerical scale), 3-week osteoarthritis study", "type": "in vivo, human", "settings": "ITT, LOCF, average of last two days of dosing week", "procedure": "A multicenter, randomized, double-blind, active- and placebo-controlled, dose escalation, clinical study was designed and conducted. […] During a 4- to 7-day washout period, patients stopped taking all of their pain medication other than acetaminophen (500 mg every 4-6 hours PRN (a maximum of 5 caplets per day)).\nPain Intensity was assessed by prompting the patient with the question, “How would you rate your overall pain intensity at this time?”, and the PI score was recorded in the clinic. Pain Intensity was also assessed by prompting the patient with the question, “How would you rate your overall pain intensity during the past 24 hours?”, and a daily PI diary score was recorded by the patient at bedtime. For both Pain Intensity prompts, the response was scored on an 11-point numerical scale (0=no pain and 10=severe pain).\nFor the efficacy analysis, endpoints were represented and analyzed by week. Missing efficacy data was imputed across weeks using the last-observation-carried-forward (LOCF) method. Thus, the primary procedure for the analysis of efficacy data was based on a LOCF approach.\nThe daily pain intensity ratings were summarized as follows. For each week, the pain intensity recorded on the last two full days of dosing within the week, restricted to Day 5 or later, was averaged. If only a single observation was available, it was used; otherwise, the endpoint was not defined. The pain intensity averages were represented as both (1) a change from baseline and (2) a percent change from baseline. The baseline value was defined as the average pain intensity over the last two values recorded during the baseline period; if necessary, a single value was used.\nFor primary analysis of data, the primary efficacy endpoint was the percent change from baseline in pain intensity at Week 3. Percent change in pain intensity was analyzed using ANOVA methods. The ANOVA model included factors for treatment, sex, and their interaction. Additional covariates could be added to the model for exploratory purposes. Pairwise treatment group comparisons were made using contrasts within the ANOVA framework. Testing employed Type III sums of squares. If the assumptions of the parametric tests were not valid, non-parametric tests were used.", "key": {"[1]": {"settings": "11-point scale 0=no pain, 10=severe pain"}}, "data": [{"smiles": "COc1ccc2c3c1O[C@H]1C(=O)CC[C@@]4(O)[C@@H](C2)N(C)CC[C@]314", "note": "[OXY QID, oxycodone]", "values": [{"measurement": "Pain intensity, actual value at Week 1, mean", "setting": "FEMALE, 11-point scale", "result": 6.2}, {"measurement": "Pain intensity, actual value at Week 1, median", "setting": "FEMALE, 11-point scale", "result": 6.3}, {"measurement": "Pain intensity, actual value at Week 2, mean", "setting": "FEMALE, 11-point scale", "result": 5.9}, {"measurement": "Pain intensity, actual value at Week 2, median", "setting": "FEMALE, 11-point scale", "result": 6.3}, {"measurement": "Pain intensity, actual value at Week 3, mean", "setting": "FEMALE, 11-point scale", "result": 5.9}, {"measurement": "Pain intensity, actual value at Week 3, median", "setting": "FEMALE, 11-point scale", "result": 6.0}, {"measurement": "Pain intensity, percent change from baseline to Week 1, mean", "result": "−18.4", "unit": "%"}, {"measurement": "Pain intensity, percent change from baseline to Week 1, median", "result": "−16.7", "unit": "%"}, {"measurement": "Pain intensity, percent change from baseline to Week 2, mean", "result": "−22.9", "unit": "%"}, {"measurement": "Pain intensity, percent change from baseline to Week 2, median", "result": "−20.0", "unit": "%"}, {"measurement": "Pain intensity, percent change from baseline to Week 3, median", "result": "−20.0", "unit": "%"}, {"measurement": "Pain intensity, actual value at Week 1, mean", "setting": "[1]", "result": 6.1}, {"measurement": "Pain intensity, actual value at Week 1, median", "setting": "[1]", "result": 6.0}, {"measurement": "Pain intensity, actual value at Week 2, mean", "setting": "[1]", "result": 5.8}, {"measurement": "Pain intensity, actual value at Week 2, median", "setting": "[1]", "result": 6.0}, {"measurement": "Pain intensity, actual value at Week 3, mean", "setting": "[1]", "result": 5.6}, {"measurement": "Pain intensity, actual value at Week 3, median", "setting": "[1]", "result": 5.5}, {"measurement": "Pain intensity, percent change from baseline to Week 3, mean", "setting": "primary efficacy endpoint", "result": "−24.6", "unit": "%"}, {"measurement": "Pain intensity, actual value at Week 2, mean", "setting": "MALE, 11-point scale", "result": 5.5}, {"measurement": "Pain intensity, actual value at Week 2, median", "setting": "MALE, 11-point scale", "result": 5.5}, {"measurement": "Pain intensity, actual value at Week 3, mean", "setting": "MALE, 11-point scale", "result": 5.0}, {"measurement": "Pain intensity, actual value at Week 3, median", "setting": "MALE, 11-point scale", "result": 4.5}, {"measurement": "Pain intensity, actual value at Week 1, mean", "setting": "males, 11-point scale", "result": 5.9}, {"measurement": "Pain intensity, actual value at Week 1, median", "setting": "males, 11-point scale", "result": 6.0}]}]}
